The values that follow are results of earlier work, collected in patent publication US6458790B2, “Substituted piperidines as melanocortin receptor agonists” (Merck & Co., Inc., priority 2000, dated 2002).

Data set [1] concerns men with erectile dysfunction. Particulars: for duration of effect / onset of action: after an oral dose; for share of men/patients in whom effective (adequate response): oral.
Data set [2] deals with males with psychogenic erectile dysfunction.
Setting [3] is: subcutaneous injection formulation.

Regarding `Cc1ccc(N(CC2=NCCN2)c2cccc(O)c2)cc1` [phentolamine], in data set [1], the duration of effect is 2 h, the onset of action was 5 to 30 min and the “share of men/patients in whom effective (adequate response)” value was 35-40%.
For “Ac-Nle-c[Asp-His-DPhe-Arg-Trp-Lys]-NH2 [MT-II]”, the “absorption into the systemic circulation” value in data set [2] (human, in vivo, po) is given as “not absorbed into the systemic circulation”. The response rate in data set [2] (injected intramuscularly or subcutaneously) is on record as 75%. Also, in data set [2] (setting [3]), the duration of action entry is given as “approximately 2.5 hours” and the “time to onset of erection” value is 10 to 20 min.
Consider `CCCc1nn(C)c2c(=O)[nH]c(-c3cc(S(=O)(=O)N4CCN(C)CC4)ccc3OCC)nc12` [Sildenafil], for which, in data set [1], the duration of effect entry was “about 4 hours”, the onset of action was 30 to 60 min and the “share of men/patients in whom effective (adequate response)” value is “about 70%”.
